# In patent publication US20250009763A1, “METHODS FOR EXTENDING LIFESPAN AND/OR DELAYING AGING” (priority 2023, published 2025):
# Test system: yeast BY4741 (WT)
# Assay: Micromanipulation assay of replicative lifespan (RLS)
# Assay type: cell-based, Saccharomyces cerevisiae
# Conditions: 25 μM; FIG. 1F
# Experimental: The micromanipulation of the yeast cells was carried out as follows. Prior to analysis, yeast strains BY4741 (WT), BY4741-fob1Δ (fob1Δ), or BY4741-sir2Δfob1Δ (sir2Δfob1Δ) were plated onto fresh solid YEPD medium and grown at 30° C. for two days. Then, individual colonies were picked and grown in solid YEPD media containing: (1) dimethyl sulfoxide (DMSO), (2) 10, 25, or 50 μM PN6, or (3) 25 μM β-sitosterol at 30° C. overnight, and a small number of yeast cells were then plated onto a fresh YEPD plate for lifespan analysis. After overnight growth on the lifespan plates, the cells were arrayed on the plate using a micromanipulator and allowed to grow for approximately 3 hours. Virgin daughter cells were selected and subjected to lifespan analysis. In the lifespan experiments, the plates were incubated at 30° C. during the day and stored at 4° C. overnight. Each experiment consisted of more than 50 mother cells and was independently repeated three times.
compound,measurement,value
"CC[C@H](CC[C@@H](C)[C@H]1CC[C@H]2[C@@H]3CC=C4C[C@@H](O)CC[C@]4(C)[C@H]3CC[C@]12C)C(C)C [3-sitosterol, β-sitosterol]",extension of the RLS of yeast,not seen
